Source: patent US5095016A, “Benzopyran compounds, processes for their production and pharmaceutical compositions” (Kaken Pharmaceutical Co., Ltd., priority 1989, dated 1992)
Read-outs that look alike come from different tables or passages of the source.

Experiments:
[1] = Acute toxicity test (oral); conditions: mouse, in vivo, male mice, mortality after 72 hours
Experimental: For an acute toxicity test, ten male mice with body weights of 22 to 25 g were used as one group, and a compound of the present invention was orally administered at a dose corresponding to the body weight. From the mortality after 72 hours, LD50 was calculated by an area method.

[2] = system: spontaneously hypertensive rat (SHR); assay: Blood pressure lowering activity in spontaneously hypertensive rats (oral); type: in vivo
Experimental: A male spontaneously hypertensive rat (SHR) of 20 weeks old was put in a cage and heated in a heating box at 45° C. for 5 minutes. SHR heated for 5 minutes was fixed to a measuring board, and a cuff for pressurizing and for blood pressure measurement was attached to the tail. As the pressurizing started, the heart rate was measured. After the rat became quiet, the maximum blood pressure was measured.
On the other hand, a compound of the present invention was dissolved or suspended in a 0.5% methyl cellulose solution and orally administered. Then, the blood pressure was measured upon expiration of 1 hour, 3 hours and 6 hours after the administration. [formula]

[3] = target: T1, Potassium channel (Rattus norvegicus, UniProt Q63563); assay: Potassium channel activating action: relaxation of KCl-contracted rat aorta spiral specimen; conditions: for inhibition at 10 µM: 10^-5 mol; for inhibition at 1 µM: 10^-6 mol; for inhibition at 0.1 µM: 10^-7 mol
T1 construct: was extracted and formed into a spiral specimen; from tissue; host or cells: aorta of male Wistar rat (spiral strip)
Experimental: The aorta of a male Wister rat having a body weight of about 240 g was extracted and formed into a spiral specimen, which was suspended under a load of 0.5 g in a Krebs.Henselate solution (37° C.) saturated with a gas mixture of 95% oxygen+5% carbon dioxide. Then, 20 mM or 60 mM potassium chloride was added thereto, and the contraction reaction was measured by means of an isometric transducer (manufactured by Nippon Koden K.K.). When the contraction reaction by potassium chloride reached the maximum, a compound of the present invention was cumulatively added, whereupon the relaxation reaction was measured. The relaxation reaction due to the drug was determined as a relaxation rate relative to the maximum contraction by potassium chloride.

[4] = 20 mM KCl, read-out: Relaxation rate (%) in 20 mM KCl
[5] = 60 mM KCl, read-out: Relaxation rate (%) in 60 mM KCl

T1 sequence (Q63563 1-1545 isoform Q63563-2): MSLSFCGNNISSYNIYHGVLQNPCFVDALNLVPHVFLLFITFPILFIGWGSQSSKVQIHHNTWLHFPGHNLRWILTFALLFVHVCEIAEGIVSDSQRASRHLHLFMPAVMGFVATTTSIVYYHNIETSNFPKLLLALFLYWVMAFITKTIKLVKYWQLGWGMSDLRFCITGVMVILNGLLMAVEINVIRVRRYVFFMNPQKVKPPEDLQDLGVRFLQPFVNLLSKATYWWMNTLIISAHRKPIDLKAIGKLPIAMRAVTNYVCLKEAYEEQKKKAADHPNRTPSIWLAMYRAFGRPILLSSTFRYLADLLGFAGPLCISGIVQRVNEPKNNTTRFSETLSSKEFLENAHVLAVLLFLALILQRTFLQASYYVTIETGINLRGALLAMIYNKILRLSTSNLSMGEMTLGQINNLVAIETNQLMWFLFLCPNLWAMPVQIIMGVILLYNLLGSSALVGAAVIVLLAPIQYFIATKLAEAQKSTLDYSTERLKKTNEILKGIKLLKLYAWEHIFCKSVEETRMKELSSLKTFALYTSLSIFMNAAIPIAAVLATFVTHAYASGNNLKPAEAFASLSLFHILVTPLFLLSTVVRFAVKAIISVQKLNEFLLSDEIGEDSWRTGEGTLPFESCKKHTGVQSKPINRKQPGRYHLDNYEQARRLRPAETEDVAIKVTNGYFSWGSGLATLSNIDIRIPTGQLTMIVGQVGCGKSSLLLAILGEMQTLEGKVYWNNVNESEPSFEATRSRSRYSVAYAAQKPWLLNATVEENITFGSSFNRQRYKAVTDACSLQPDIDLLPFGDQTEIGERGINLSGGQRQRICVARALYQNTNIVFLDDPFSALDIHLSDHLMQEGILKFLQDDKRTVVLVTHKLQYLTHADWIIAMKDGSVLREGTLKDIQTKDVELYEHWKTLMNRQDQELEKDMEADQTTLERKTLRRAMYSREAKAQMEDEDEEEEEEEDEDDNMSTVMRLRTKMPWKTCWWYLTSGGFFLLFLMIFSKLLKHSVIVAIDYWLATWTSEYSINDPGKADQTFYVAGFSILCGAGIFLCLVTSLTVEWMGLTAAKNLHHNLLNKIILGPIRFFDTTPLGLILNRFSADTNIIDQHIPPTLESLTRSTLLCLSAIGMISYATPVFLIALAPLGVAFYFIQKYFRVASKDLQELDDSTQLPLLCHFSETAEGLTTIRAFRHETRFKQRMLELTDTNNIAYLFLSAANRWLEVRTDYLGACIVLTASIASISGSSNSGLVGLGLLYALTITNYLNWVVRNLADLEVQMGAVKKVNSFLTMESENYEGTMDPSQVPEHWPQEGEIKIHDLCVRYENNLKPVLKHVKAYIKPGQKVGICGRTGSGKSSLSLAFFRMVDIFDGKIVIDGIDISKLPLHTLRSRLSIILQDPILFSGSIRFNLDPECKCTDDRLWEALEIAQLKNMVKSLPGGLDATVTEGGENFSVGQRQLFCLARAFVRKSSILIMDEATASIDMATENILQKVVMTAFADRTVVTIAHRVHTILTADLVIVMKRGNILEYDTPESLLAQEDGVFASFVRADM
T1 sequence (Q63664 whole entry partner): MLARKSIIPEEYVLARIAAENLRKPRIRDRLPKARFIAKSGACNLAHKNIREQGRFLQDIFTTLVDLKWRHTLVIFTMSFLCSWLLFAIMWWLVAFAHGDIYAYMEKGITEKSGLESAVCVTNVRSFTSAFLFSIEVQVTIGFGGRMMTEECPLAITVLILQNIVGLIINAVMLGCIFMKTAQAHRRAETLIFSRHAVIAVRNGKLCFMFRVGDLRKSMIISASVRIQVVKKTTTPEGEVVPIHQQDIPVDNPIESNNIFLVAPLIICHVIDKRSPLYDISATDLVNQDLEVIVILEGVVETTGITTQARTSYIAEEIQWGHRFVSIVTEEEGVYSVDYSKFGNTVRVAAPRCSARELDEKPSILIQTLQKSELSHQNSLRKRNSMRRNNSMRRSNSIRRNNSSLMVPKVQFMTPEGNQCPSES

Row | Compound | LD50 at 72 h [1] [mg/kg] | Change (%) from the value before administration ([2]; 0.1 mg/kg, 1 hr later) [%] | Change (%) from the value before administration ([2]; 0.1 mg/kg, 3 hrs later) [%] | Change (%) from the value before administration ([2]; 0.1 mg/kg, 6 hrs later) [%] | Change (%) from the value before administration ([2]; 0.3 mg/kg, 1 hr later) [%] | Change (%) from the value before administration ([2]; 0.3 mg/kg, 3 hrs later) [%] | Change (%) from the value before administration ([2]; 0.3 mg/kg, 6 hrs later) [%] | Change (%) from the value before administration ([2]; 1 mg/kg, 1 hr later) [%] | Change (%) from the value before administration ([2]; 1 mg/kg, 3 hrs later) [%] | Change (%) from the value before administration ([2]; 1 mg/kg, 6 hrs later) [%] | Change (%) from the value before administration ([2]; 3 mg/kg, 1 hr later) [%] | Change (%) from the value before administration ([2]; 3 mg/kg, 3 hrs later) [%] | Change (%) from the value before administration ([2]; 3 mg/kg, 6 hrs later) [%] | Change (%) from the value before administration ([2]; 10 mg/kg, 1 hr later) [%] | Change (%) from the value before administration ([2]; 10 mg/kg, 3 hrs later) [%] | Change (%) from the value before administration ([2]; 10 mg/kg, 6 hrs later) [%] | inhibition at 10 µM [3, 4] [%] | inhibition at 1 µM [3, 4] [%] | inhibition at 0.1 µM [3, 4] [%] | inhibition at 0.01 µM [3, 4] [%] | other results
1 | CC(=NC#N)N[C@@H]1c2cc(C#N)ccc2OC(C)(C)[C@H]1O (relative stereo) [Example 2, 6-cyano-3,4-dihydro-2,2-dimethyl-trans-4-[(N-cyano-acetimidoyl)amino]-2H-benzo[b]pyran-3-ol] | ≥ 2000 | 10 | 5 | 0 | 26 | 17 | 12 | 42 | 45 | 26 | 60 | 56 | 58 | 64 | 61 | 61 | 100 | 95.6 | 30.6 | 6.8 | inhibition at 10 µM [3, 5]: 5.6%; inhibition at 1 µM [3, 5]: 1%; inhibition at 0.1 µM [3, 5]: 0%; inhibition at 0.01 µM [3, 5]: 0%
2 | CC(=NC#N)NC1=CC(C)(C)Oc2ccc(C#N)cc21 [Example 34, 6-cyano-2,2-dimethyl-4-[(N-cyano-acetimidoyl)amino]-2H-benzo[b]pyran] | ≥ 2000 | 12 | 5 | 0 | 41 | 45 | 23 | 62 | 60 | 57 | 65 | 63 | 63 | 64 | 64 | 65 | 100 | 100 | 94.3 | 28.7 | inhibition at 10 µM [3, 5]: 21.8%; inhibition at 1 µM [3, 5]: 13.2%; inhibition at 0.1 µM [3, 5]: 4.5%; inhibition at 0.01 µM [3, 5]: 0%
3 | COC(=O)C1=C(C)NC(C)=C(C(=O)OCCN(C)Cc2ccccc2)C1c1cccc([N+](=O)[O-])c1 (stereo not drawn) [Nicardipin, reference compound] |  |  |  |  |  |  |  |  |  |  | 20 | 8 | 0 | 40 | 9 | 7 |  |  |  |  | 
